Test systems include 786-0; A549; CCRF-CEM; COLO 205; HCT-15; HOP-62; HT-29; Hs-578T; IGROV-1; K562; KM12; LOX IMVI; Malme-3M; NCI-H226; NCI-H522; NCI/ADR-RES; OVCAR-4; PC-3; SK-MEL-5; SK-OV-3.
What all share (assay): NCI anticancer screen, dose series, 48 h

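Cells were grown in 96-well plates and exposed to each compound for 48 hours at five concentrations; endpoints were interpolated linearly between bracketing concentrations, or set to the highest concentration if not reached. Here, GI50 denotes the concentration required for 50% inhibition of growth.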 Calls of active or inactive are those of the source. Cut-off read from the data, not from the text of the source: active = GI50 up to about 1.1 µM and inactive = higher.

As to `CCN(CC)c1ccc(/C=C2\CCc3ccc([N+](=O)[O-])cc3C2=O)cc1`, the GI50 with 786-0 is 2.84 µM (inactive); in the test on A549 it was 4.58 µM (inactive); in the test on CCRF-CEM, 0.217 µM (active); in the test with COLO 205, 4.01 µM (inactive); in the test with HCT-15, 0.64 µM; with HOP-62, 0.471 µM (active). For the same compound, the GI50 with HT-29 is 0.256 µM (active); in the test with Hs-578T, 1.26 µM (inactive); in the test with IGROV-1, 7.06 µM (inactive); in the test on K562, 0.0755 µM (active); with KM12 it was 0.582 µM (active); with LOX IMVI, 0.409 µM (active). In addition, the GI50 in the test with Malme-3M was 2.52 µM (inactive); in the test with NCI-H226 it was > 100 µM (inactive); with NCI-H522, 0.912 µM (active); in the test with NCI/ADR-RES, 1.03 µM (active); in the test with OVCAR-4 it was > 100 µM (inactive); with PC-3, 1.97 µM (inactive). The values for the GI50 in the test with SK-MEL-5 and in the test with SK-OV-3 were 1.71 µM (inactive) and 4.54 µM (inactive), respectively.
On to `CSc1nc(=S)[nH]c2[nH]nc(C)c12`, for which the GI50 was > 100 µM (inactive) with 786-0; > 100 µM (inactive) in the test with A549; > 100 µM (inactive) in the test with CCRF-CEM; > 100 µM (inactive) with COLO 205; above 100 µM with HCT-15; > 100 µM (inactive) in the test with HT-29. In addition, the GI50 with Hs-578T, in the test with K562, in the test with KM12, with LOX IMVI, with Malme-3M and in the test with NCI-H226 was > 100 µM (inactive) throughout. In addition, the GI50 in the test on NCI-H522 was 55 µM (inactive); with NCI/ADR-RES, > 100 µM (inactive); in the test on OVCAR-4, > 100 µM (inactive); with PC-3, > 100 µM (inactive); with SK-MEL-5 it was > 100 µM (inactive); with SK-OV-3, > 100 µM (inactive).
Take `Cc1ccsc1/C(S)=N\c1ccc(Cl)c(/C=N/OC(C)(C)C)c1`: the GI50 with 786-0 was 20.9 µM (inactive); in the test with A549, 30.9 µM (inactive); in the test on CCRF-CEM it was 24.2 µM (inactive); with COLO 205, 16.3 µM (inactive); in the test on HCT-15, 31.2 µM; with HOP-62, 51.5 µM (inactive). Besides, the GI50 with HT-29 was 14.1 µM (inactive); in the test on Hs-578T it was 29.7 µM (inactive); in the test with IGROV-1 it was 28.9 µM (inactive); with KM12, 25.1 µM (inactive); in the test on LOX IMVI it was 18.6 µM (inactive); in the test with Malme-3M it was 40.2 µM (inactive). In addition, the GI50 in the test with NCI-H226 was 24.7 µM (inactive); with NCI-H522, 24 µM (inactive); in the test with NCI/ADR-RES, 23.6 µM (inactive); with OVCAR-4, > 100 µM (inactive); in the test with PC-3, 34.4 µM (inactive); in the test with SK-MEL-5 it was 31.5 µM (inactive). Also, the GI50 in the test on SK-OV-3 was > 100 µM (inactive).
As for `Oc1c(C2=N[C@H]3CCCC[C@@H]3N2)ccc2ccccc12`, the GI50 in the test on 786-0 is > 100 µM (inactive); in the test with CCRF-CEM, > 100 µM (inactive); in the test with COLO 205, > 100 µM (inactive); in the test with HCT-15, above 100 µM; in the test on HOP-62, > 44.7 µM (inactive); in the test on HT-29, > 100 µM (inactive). For the same compound, the GI50 was > 100 µM (inactive) in the test with Hs-578T; > 82 µM (inactive) in the test on IGROV-1; > 100 µM (inactive) in the test with K562; > 100 µM (inactive) in the test with KM12; > 100 µM (inactive) in the test on LOX IMVI; > 100 µM (inactive) in the test with Malme-3M. Besides, the GI50 is > 100 µM (inactive) in the test on NCI-H226; > 100 µM (inactive) in the test on NCI-H522; > 47.6 µM (inactive) in the test with NCI/ADR-RES; > 100 µM (inactive) with OVCAR-4; > 100 µM (inactive) with PC-3; > 100 µM (inactive) in the test with SK-MEL-5. Also, the GI50 in the test on SK-OV-3 is > 100 µM (inactive).
Consider `O=C(c1cccs1)N(Cc1cccnc1)C(=S)N(Cc1cccnc1)C(=O)c1cccs1`, for which the GI50 is 3.56 µM (inactive) with 786-0; > 100 µM (inactive) in the test with A549; > 100 µM (inactive) in the test with CCRF-CEM; > 100 µM (inactive) in the test on COLO 205; above 100 µM in the test with HCT-15; 35.6 µM (inactive) with HOP-62. Moreover, the GI50 with HT-29 is > 100 µM (inactive); in the test on Hs-578T, 53.2 µM (inactive); in the test on K562, 26.4 µM (inactive); in the test on KM12, 24.4 µM (inactive); in the test on LOX IMVI it was 5.5 µM (inactive); in the test on Malme-3M it was > 100 µM (inactive). In addition, the GI50 was > 100 µM (inactive) in the test on NCI-H226; 36.5 µM (inactive) in the test on NCI-H522; > 100 µM (inactive) in the test on NCI/ADR-RES; > 100 µM (inactive) with OVCAR-4; 41.8 µM (inactive) with PC-3; > 100 µM (inactive) in the test on SK-MEL-5. The GI50 in the test on SK-OV-3 was 37.8 µM (inactive).
For `CCOC(=O)Cn1c(=O)c2nc(SC)sc2n(-c2ccc(C)cc2)c1=S`, the GI50 was 18.1 µM (inactive) in the test with 786-0; > 60.4 µM (inactive) with A549; > 100 µM (inactive) in the test on CCRF-CEM; > 100 µM (inactive) in the test with COLO 205; above 100 µM in the test with HCT-15; 20 µM (inactive) in the test with HOP-62. The GI50 was > 87.3 µM (inactive) with HT-29; 19.2 µM (inactive) in the test on Hs-578T; 55.3 µM (inactive) in the test with IGROV-1; > 100 µM (inactive) with K562; > 100 µM (inactive) with LOX IMVI; 40.4 µM (inactive) in the test on Malme-3M. In addition, the GI50 in the test on NCI-H226 is 23.8 µM (inactive); in the test on NCI-H522, 79.6 µM (inactive); in the test with NCI/ADR-RES, 50.6 µM (inactive); in the test with OVCAR-4, 10.2 µM (inactive); with PC-3 it was 38.1 µM (inactive); with SK-MEL-5, > 100 µM (inactive). Also, the GI50 in the test on SK-OV-3 was 45.8 µM (inactive).
As for `O=P1(Oc2ccc(Cl)cc2)OCCS1` (centres undefined), the GI50 was > 100 µM (inactive) with 786-0; > 100 µM (inactive) in the test on A549; > 100 µM (inactive) in the test on CCRF-CEM; > 100 µM (inactive) in the test with COLO 205; above 100 µM in the test with HCT-15; > 100 µM (inactive) with HOP-62. The GI50 with HT-29, in the test with Hs-578T, in the test on IGROV-1, in the test on LOX IMVI, in the test on Malme-3M and in the test on NCI-H226 was > 100 µM (inactive) in each case. Moreover, the GI50 in the test with NCI-H522, with NCI/ADR-RES, with PC-3, in the test with SK-MEL-5 and with SK-OV-3 was > 100 µM (inactive) in each case.
Turning to `COP(=O)(OC)[C@@](O)(c1ccccc1)[C@@H](O)[C@@H](O)c1ccccc1`, the GI50 in the test with 786-0 is 64.6 µM (inactive); in the test on A549, > 100 µM (inactive); in the test on CCRF-CEM, 21.7 µM (inactive); with COLO 205, > 100 µM (inactive); in the test with HCT-15, above 100 µM; in the test with HT-29, > 100 µM (inactive). The GI50 in the test with Hs-578T was > 100 µM (inactive); in the test with IGROV-1 it was 87.5 µM (inactive); with KM12 it was > 100 µM (inactive); with LOX IMVI, 17.8 µM (inactive); with Malme-3M it was > 100 µM (inactive); in the test with NCI-H226, > 100 µM (inactive). For the same compound, the GI50 was 37.4 µM (inactive) in the test with NCI-H522; > 100 µM (inactive) in the test with NCI/ADR-RES; > 100 µM (inactive) in the test on OVCAR-4; > 100 µM (inactive) in the test with PC-3; > 100 µM (inactive) in the test on SK-MEL-5; > 100 µM (inactive) in the test on SK-OV-3.
Turning to `Cn1cnc(N2CCCC2)c(C#N)c1=O`, the GI50 with 786-0 is > 100 µM (inactive); with A549, > 100 µM (inactive); with CCRF-CEM it was > 100 µM (inactive); in the test with COLO 205, > 100 µM (inactive); in the test with HCT-15 it was above 100 µM; in the test on HOP-62 it was > 100 µM (inactive). Moreover, the GI50 with HT-29, with Hs-578T, with IGROV-1, in the test with K562, in the test with KM12 and in the test on LOX IMVI was > 100 µM (inactive) throughout. Moreover, the GI50 with Malme-3M, in the test with NCI-H226, in the test with NCI-H522, in the test on NCI/ADR-RES, with OVCAR-4 and in the test on PC-3 was > 100 µM (inactive) throughout. Besides, the GI50 in the test with SK-MEL-5 was > 100 µM (inactive).
Turning to `Nc1c(Cl)cc(-c2nc3ccccc3s2)cc1Cl`, the GI50 in the test on 786-0 is 22.6 µM (inactive); in the test on A549, > 100 µM (inactive); with CCRF-CEM, > 100 µM (inactive); in the test on COLO 205, > 100 µM (inactive); with HCT-15 it was above 100 µM; in the test with HOP-62, > 100 µM (inactive). Also, the GI50 in the test on HT-29 was > 100 µM (inactive); in the test with Hs-578T, > 100 µM (inactive); with IGROV-1, 0.328 µM (active); in the test on K562 it was > 100 µM (inactive); in the test on KM12, > 100 µM (inactive); in the test with Malme-3M it was > 100 µM (inactive). For the same compound, the GI50 in the test with NCI-H226, with NCI-H522, in the test on NCI/ADR-RES, in the test on PC-3, with SK-MEL-5 and with SK-OV-3 was > 100 µM (inactive) in each case.
In the case of `CC1=NN(c2cc(Cl)c(S(=O)(=O)O)cc2Cl)C2(C1)C(Cl)C(=O)N2c1nc2ccccc2s1` (centres undefined), the GI50 is > 100 µM (inactive) in the test with 786-0; > 100 µM (inactive) in the test with A549; 30.3 µM (inactive) in the test with CCRF-CEM; > 100 µM (inactive) in the test on COLO 205; above 100 µM in the test with HCT-15; > 100 µM (inactive) in the test on HT-29. The GI50 is > 100 µM (inactive) in the test with Hs-578T; 35 µM (inactive) in the test with IGROV-1; > 100 µM (inactive) in the test on K562; 97.9 µM (inactive) with KM12; 29.4 µM (inactive) in the test with LOX IMVI; > 100 µM (inactive) in the test with Malme-3M. Further, the GI50 was 53.5 µM (inactive) with NCI-H226; 19.6 µM (inactive) in the test with NCI-H522; > 100 µM (inactive) with NCI/ADR-RES; > 100 µM (inactive) with OVCAR-4; 27.8 µM (inactive) in the test on PC-3; > 100 µM (inactive) in the test with SK-MEL-5.

These data come from ChEMBL document CHEMBL1201862, “PubChem BioAssay data set” (2004).
